# Reference: patent US12097177B2, “Therapeutic method for cat with chronic kidney disease” (Toray Industries, Inc., priority 2021, dated 2024)
# Read-outs that look alike come from different tables or passages of the source.
# How the values were obtained:
# [1] = system: cats with CKD; assay: Retrospective observation study: period before kidney death (serum creatinine higher than 10.0 mg/dL), BPS therapy vs No BPS therapy; assay type: in vivo, cat; settings: for 3-year kidney survival rate: cats with CKD; for average period before kidney death: Kaplan-Meier
# Experimental: Based on the drug prescription records, cats were divided into two groups: a BPS therapy group consisting of 73 cats; and a BPS therapy-free group consisting of 126 cats.
# In Example 3, the periods before kidney death were compared and analyzed retrospectively. The timing of kidney death was determined with reference to the guidelines on acute kidney insufficiency from the International Renal Interest Society. On the basis of the statement such that “a patient may die within 5 to 10 days despite appropriate conservative therapy without kidney replacement therapy if serum creatinine is higher than 10.0 mg/dL,” specifically, kidney death was determined when serum creatinine of higher than 10.0 mg/dL was recorded in the serum creatinine test. By designating kidney death as the outcome, the start date of treatment as the point of origin for the cats in the BPS therapy group, and the start date of observation as the point of origin for the cats in the No BPS therapy group, the periods (months) before the outcome was observed were recorded. In analysis, the 3-year kidney survival rates (%) of the BPS therapy group and of the No BPS therapy group, the standard errors thereof, the 95% confidence intervals, and the comparison of the 3-year kidney survival rates (%) between the groups were calculated. […] Differences in the kidney survival rates were assessed by the log rank test, the Cochran-Mantel-Haenszel test, by setting significant level at a two-tailed P-value of <0.05.
# Based on the drug prescription records, cats were divided into two groups: a BPS therapy group consisting of 37 cats; and a BPS therapy-free group consisting of 332 cats.
# In Comparative Example 2, the periods before kidney death were compared and analyzed retrospectively. The timing of kidney death was determined with reference to the guidelines on acute kidney insufficiency from the International Renal Interest Society. On the basis of the statement such that “a patient may die within 5 to 10 days despite appropriate conservative therapy without kidney replacement therapy if serum creatinine is higher than 10.0 mg/dL,” specifically, kidney death was determined when serum creatinine of higher than 10.0 mg/dL was recorded in the serum creatinine test. By designating kidney death as the outcome, the start date of treatment as the point of origin for the cats in the BPS therapy group, and the start date of observation as the point of origin for the cats in the No BPS therapy group, the periods (months) before the outcome was observed were recorded. In analysis, the 3-year kidney survival rates (%) of the BPS therapy group and of the No BPS therapy group, the standard errors thereof, the 95% confidence intervals, and the comparison of the 3-year kidney survival rates (%) between the groups were calculated. […] Differences in the kidney survival rates were assessed by the log rank test, the Cochran-Mantel-Haenszel test, by setting significant level at a two-tailed P-value of <0.05.
# [2] = system: cats with chronic renal failure; settings: cited from earlier work; for kidney function: 4 cats
# [3] = system: cats with CKD; settings: 55 μg twice daily for at least 5 months, cited from earlier work
# [4] = system: kidney of rat progressive glomerulonephritis; settings: in vivo; cited from earlier work
# [5] = system: patient with chronic renal failure; settings: BPS immediate release tablets; serum creatinine of 2.2 mg/dl or higher; cited from earlier work
# [6] = first study, 26 cats (BPS group 11)
# [7] = later study, 29 cats (BPS group 15)
structure (smiles),measurement,setting,value
"CC#CCC(C)[C@H](O)/C=C/[C@@H]1[C@H]2c3cccc(CCCC(=O)[O-])c3O[C@H]2C[C@H]1O.[Na+] (stereo partly shown) [BPS, Beraprost sodium]",3-year kidney survival rate,[1]; serum creatinine 1.6 to 2.8 mg/dL (stage 2),90.0%
same,3-year kidney survival rate,"[1]; serum creatinine 2.9 to 5.0 mg/dL (stage 3) or higher than 5.0 mg/dL (stage 4), 10.0 mg/dL or lower",77.1%
same,3-year kidney survival rate of BPS therapy group relative to No BPS therapy group,[1]; stage 2,0.95 times
same,average kidney survival period of BPS therapy group relative to No BPS therapy group,[1]; stage 2,0.97 times
same,average period before kidney death,[1]; stage 2,40.8 months
same,effect on kidney death,[1]; stage 2 before initiation of administration,no effects of BPS administration to inhibit kidney death were observed
same,3-year kidney survival rate of BPS therapy group relative to No BPS therapy group,[1]; stage 3 or 4,1.20 times
same,average kidney survival period of BPS therapy group relative to No BPS therapy group,[1]; stage 3 or 4,1.48 times
same,average period before kidney death,[1]; stage 3 or 4,39.2 months
same,effect on kidney death,[1]; stage 3 or 4 before initiation of administration,effects of BPS administration to inhibit kidney death were observed
same,"kidney function (serum creatinine, BUN, other indicators) and clinical symptoms",[2]; 150 μg twice daily for 6 months,an improvement in kidney function
same,kidney function,"[2]; serum creatinine 1.6 to 2.4 mg/dL (mild), 150 μg twice daily for 6 months",improved kidney function was observed in all of the 4 subject cats
same,kidney function,"[2]; serum creatinine 2.4 to 4.0 mg/dL (moderate), 150 μg twice daily for 6 months","improved kidney function was observed in the 2 subject cats, and retained kidney function was observed in other 2 cats"
same,kidney function,"[2]; serum creatinine higher than 4.0 mg/dL (severe), 150 μg twice daily for 6 months","improved kidney function was observed in a cat, and temporary improvement, followed by impairment, was observed in other 3 cats"
same,uremia,[2]; cat with uremia caused by chronic renal failure (WO '668),improved uremia
same,recovery from chronic renal failure,"[2]; mild chronic renal failure, serum creatinine 1.4 to 2.0 mg/dL, 150 μg twice daily for 6 months",recovery from chronic renal failure was observed in 2 cats
same,effect of improving the survival rate vs renin-angiotensin system inhibitor group,[3]; [6],higher than those in the renin-angiotensin system inhibitor group
same,effect of lowering the risk of 10% body weight loss vs renin-angiotensin system inhibitor group,[3]; [6],higher than those in the renin-angiotensin system inhibitor group
same,effect of improving the survival rate vs renin-angiotensin system inhibitor group,[3]; [7],no effects of improving the survival rate were observed
same,effect of lowering the risk of 10% body weight loss vs renin-angiotensin system inhibitor group,[3]; [7],effects of lowering the risk of 10% body weight loss were observed
same,pharmacological activity on renal microvascular network,[4],improving microvascular network failure of kidney tissue
same,effects of BPS in chronic renal failure,[5],effects of BPS are not observed
